Results on 25 compounds are retold here after patent US4533670A, “Anti-convulsant fluorenylalkylimidazole derivatives, compositions, and method of use” (Eli Lilly and Company, priority 1983, dated 1985).

By ED50 is commonly meant the dose that gives a 50% effect, or the effect in half of the subjects.

SMILES strings stand for the structures. Where a name gives a salt, the structure may show the parent alone. Read-outs that look alike come from different tables or passages of the source.

Data set [1] deals with extensor tonic convulsions. Kind of data set: Electroshock induced convulsion inhibition assay. It counts as in vivo, Cox standard strain albino male mice. The following applies: Mus musculus, po, p.o. (gavage), mice, 0.1 second, 50 milliampere corneal electroshock, read-out: ED50 (dose which inhibited extensor tonic convulsions in one half of the animals). The source says: The compounds of Formula II are anticonvulsant agents with a high therapeutic ratio and long half-life and are therefore useful in the treatment and/or prevention of convulsions in mammals. In particular, the compounds are effective against tonic extensor seizures elicited by maximal electroshock and should therefore be useful for treating generalized tonic-clonic ("grand mal"), cortical focal, complex partial (temporal lobe epilepsy), simple partial (focal motor), and post-traumaticseizures in humans. […] In the electroshock induced convulsion inhibition assay, the compound to be tested was dissolved in water (5%--sufficient hydrochloric acid was added for those compounds which were not isolated as a salt in order to effect dissolution) and administered by gavage to each of three Cox standard strain albino male mice (18-24 g.) at the dose level being investigated. Sixty to 240 minutes after compound administration, the mice were subjected to a 0.1 second, 50 milliampere electroshock through corneal electrodes. The animals were examined and evaluated immediately after the electroshock for the occurrence of clonic, flexor tonic, or extensor tonic convulsions, or death and the ED50 was determined for each compound (for the particular time after administration of the compound) as the dose which inhibited the occurrence of extensor tonic convulsions in one half of the animals immediately after the electroshock. For comparison, 18 milliamperes was usually sufficient to produce extensor tonic convulsions in about half of the control animals; at 50 milliamperes, almost all control animals (receiving vehicle only) died. The test results are summarized in Table I as the ED50 's at the optimal time after compound administration.

The next data set has as its system seizures. The settings on record: man; cited from earlier work.
The conditions of data set [2]: man, cited from earlier work.
Setting [3] is: 1 h, 60 minutes after administration (optimal time).
The mark [4] stands for this setting: 2 h, 120 minutes after administration (optimal time).

Regarding `Cc1nccn1CC(=O)c1ccc2c(c1)Cc1ccccc1-2.Cl` [Example 1, 1-(9H-fluoren-2-yl)-2-(2-methyl-1H-imidazol-1-yl)ethanone hydrochloride], the ED50 in data set [1] (setting [3]) is 210 mg/kg.
`CCc1nccn1CC(=O)c1ccc2c(c1)Cc1ccccc1-2` [Example 2, 2-(2-ethyl-1H-imidazol-1-yl)-1-(9H-fluoren-2-yl)ethanone]: in data set [1] (setting [4]), the ED50 was determined as 188 mg/kg.
Regarding `Cc1cn(CC(=O)c2ccc3c(c2)Cc2ccccc2-3)cn1.Cl` [Example 3, 1-(9H-fluoren-2-yl)-2-(4-methyl-1H-imidazol-1-yl)ethanone hydrochloride], the ED50 in data set [1] (setting [3]) is 90 mg/kg.
Turning to `Cl.O=C(Cn1ccnc1)c1ccc2c(c1)Cc1cc(Br)ccc1-2` [Example 4, 2-(1H-imidazol-1-yl)-1-(7-bromo-9H-fluoren-2-yl)ethanone hydrochloride], the median effective dose (ED50) in data set [1] (setting [4]) was 79 mg/kg.
Same read-out and setting: to `CC1c2ccccc2-c2ccc(C(=O)Cn3ccnc3)cc21.Cl` (stereo not shown) [Example 5, 2-(1H-imidazol-1-yl)-1-(9-methyl-9H-fluoren-2-yl)ethanone hydrochloride] belongs 33 mg/kg.
On to `CC1(C)c2ccccc2-c2ccc(C(=O)Cn3ccnc3)cc21.Cl` [Example 6, 1-(9,9-Dimethyl-9H-fluoren-2-yl)-2-(1H-imidazol-1-yl)ethanone hydrochloride], for which, in data set [1] (setting [3]), the ED50 stood at 48 mg/kg.
Turning to `Cc1ccc2c(c1)Cc1cc(C(=O)Cn3ccnc3)ccc1-2.Cl` [Example 7, 2-(1H-imidazol-1-yl)-1-(7-methyl-9H-fluoren-2-yl)ethanone hydrochloride], the median effective dose (ED50) in data set [1] (setting [4]) stood at 68 mg/kg.
Regarding `Cl.O=C(Cn1ccnc1)c1ccc2c(c1)Cc1ccccc1-2` [Example 8, 2-(1H-imidazol-1-yl)-1-(9H-fluoren-2-yl)ethanone hydrochloride], the ED50 in data set [1] (3 h, 180 minutes after administration (optimal time)) came to 25 mg/kg.
With `Cl.O=C(Cn1ccnc1)c1cccc2c1Cc1ccccc1-2` [Example 9, 1-(9H-fluoren-1-yl)-2-(1H-imidazol-1-yl)ethanone hydrochloride], the ED50 in data set [1] (setting [4]) was determined as 20 mg/kg.
Regarding `Cl.O=C(Cn1ccnc1)c1cccc2c1-c1ccccc1C2` [Example 10, 1-(9H-fluoren-4-yl)-2-(1H-imidazol-1-yl)ethanone hydrochloride], the ED50 in data set [1] (setting [3]) was 44 mg/kg.
On the same count and under the same terms, to `Cl.O=C(CCn1ccnc1)c1ccc2c(c1)Cc1ccccc1-2` [Example 11, 1-(9H-fluoren-2-yl)-3-(1H-imidazol-1-yl)-1-propanone hydrochloride] belongs 19 mg/kg.
Take `CC(C(=O)c1ccc2c(c1)Cc1ccccc1-2)n1ccnc1.Cl` (stereo not shown) [Example 12, 2-(1H-imidazol-1-yl)-1-(9H-fluoren-2-yl)-1-propanone hydrochloride]: the median effective dose (ED50) in data set [1] (1.5 h, 90 minutes after administration (optimal time)) was 35 mg/kg.
`CCC(C(=O)c1ccc2c(c1)Cc1ccccc1-2)n1ccnc1.Cl` (stereo not shown) [Example 13, 2-(1H-imidazol-1-yl)-1-(9H-fluoren-2-yl)-1-butanone hydrochloride]: in data set [1] (setting [3]), the ED50 was determined as 50 mg/kg.
Same read-out and setting: to `OC(Cn1ccnc1)c1ccc2c(c1)Cc1ccccc1-2` (stereo not shown) [Example 14, 1-(9H-fluoren-2-yl)-2-(1H-imidazol-1-yl)-1-ethanol] belongs 22 mg/kg; to `OC(CCn1ccnc1)c1ccc2c(c1)Cc1ccccc1-2` (stereo not shown) [Example 15, 1-(9H-fluoren-2-yl)-3-(1H-imidazol-1-yl)-1-propanol], 33 mg/kg; to `O=C(OC(Cn1ccnc1)c1ccc2c(c1)Cc1ccccc1-2)c1ccccc1` (stereo not shown) [Example 16, 1-(9H-fluoren-2-yl)-2-(1H-imidazol-1-yl)-1-ethanol, benzoate ester hydrochloride], 32 mg/kg.
The same measure, in the same setting: in the case of `CCSC(Cn1ccnc1)c1ccc2c(c1)Cc1ccccc1-2.Cl` (stereo not shown) [Example 17, 1-[2-(Ethylthio)-2-(9H-fluoren-2-yl)ethyl]-1H-imidazole hydrochloride] it was 44 mg/kg.
Regarding `c1ccc2c(c1)Cc1cc(C3(Cn4ccnc4)OCCO3)ccc1-2` [Example 18, 1-([2-(9H-fluoren-2-yl)-1,3-dioxolan-2-yl]methyl)-1H-imidazole], in data set [1] (4 h, 240 minutes after administration (optimal time)), the 50% effective dose (ED50) came to 23 mg/kg.
Take `CC1COC(Cn2ccnc2)(c2ccc3c(c2)Cc2ccccc2-3)O1` (stereo not shown) [Example 19, 1-([2-(9H-fluoren-2-yl)-4-methyl-1,3-dioxolan-2-yl]methyl)-1H-imidazole]: the 50% effective dose (ED50) in data set [1] (setting [4]) is 21 mg/kg.
Turning to `CC1(C)COC(Cn2ccnc2)(c2ccc3c(c2)Cc2ccccc2-3)OC1` [Example 20, 1-([2-(9H-fluoren-2-yl)-5,5-dimethyl-1,3-dioxan-2yl]methyl)-1H-imidazole], the ED50 in data set [1] (setting [4]) was 65 mg/kg.
For `Cl.c1ccc2c(c1)Cc1cc(C3(Cn4ccnc4)OCCCO3)ccc1-2` [Example 21, 1-([2-(9H-fluoren-2-yl)-1,3-dioxan-2-yl]methyl)-1H-imidazole hydrochloride], the 50% effective dose (ED50) in data set [1] (setting [3]) was 32 mg/kg.
Still for that read-out and setting: in the case of `c1ccc2c(c1)Cc1cc(C3(CCn4ccnc4)OCCO3)ccc1-2` [Example 22, 1-(2-[2-(9H-fluoren-2-yl)-1,3-dioxolan-2-yl]ethyl)-1H-imidazole] it was 26 mg/kg.
On to `Cl.c1ccc2c(c1)Cc1cc(C3(Cn4ccnc4)SCCS3)ccc1-2` [Example 23, 1-([2-(9H-fluoren-2-yl)-1,3-dithiolan-2-yl]methyl)-1H-imidazole hydrochloride], for which the ED50 in data set [1] (setting [4]) came out at 41 mg/kg.
In the case of `CC(O)(Cn1ccnc1)c1ccc2c(c1)Cc1ccccc1-2` (stereo not shown) [Example 24, 1-(1H-imidazol-1-yl)-2-(9H-fluoren-2-yl)-2-propanol], the 50% effective dose (ED50) in data set [1] (setting [4]) was 14 mg/kg.
Turning to `O=C1NC(=O)C(c2ccccc2)(c2ccccc2)N1` [phenytoin], in the data set with seizures, the “plasma level at which seizures are controlled” value is no less than 10 µg/mL. In data set [2] (ataxia), the “plasma level at which ataxia is obvious” value is 30000 ng/mL. Besides, the “plasma level at which lethargy is apparent” value in data set [2] (lethargy) was “about 40 mcg./ml”. Further, the “plasma level at which nystagmus is seen” value in data set [2] (nystagmus) was “around 20 mcg./ml”.
